Assay results from patent US8420606B2, “Method of utilizing physiological activity of rare saccharide and composition containing rare saccharide” (priority 2002, dated 2013).
Entries after “also recorded” stand apart in the source; their conditions may differ.

Experiments:
[1] = test system: OVCAR3 (ovary cancer) cells; assay: cell cycle analysis by flow cytometer; assay type: cell-based, human; details: D-allose 50 mM, cultured for 3 days; control 12.6%
Protocol: (2) Method: The cell cycle was analyzed by using a flow cytometer. Cells used here were OVCAR3 (ovary cancer) cells. 1) The cells were treated with trypsin to prepare a cell suspension liquid. 2) The cells were inaculated into a plastic tissue with a diameter of 100 mm and cultured for 24 hours (overnight) in a CO2 incubator. 3) Two groups of the cells, i.e., one with a rare saccharide (D-allose 50 mM) and the other with no rare saccharides (with D-glucose as a control), were cultured for 3 days. 4) The separated cells were washed twice with PBS(−). 5) After centrifugation, 3 mL of PBS(−) was added and stirred by pipetting. 6) 7 mL of 100% ethanol was added, followed by fixation at 4° C. for 2 hours. 7) The liquid was subjected to centrifugation at 1500 rpm for 5 minutes. 8) The separated cells were washed twice with cold PBS(−). 9) After centrifugation, 200 μg/mL of RNase was added, followed by incubation at 37° C. for 30 minutes. 10) 0.5 mL of PI (propidum iodide) was added, followed by incubation for 15 minutes. 11) The cell number was measured by using a flow cytometer.

[2] = test system: uterine cancer cells (He1a); assay: proliferation of cultured cells, MTT method, He1a; assay type: cell-based, human; details: saccharide 50 mM, 4 to 5 days
Protocol: Various kinds of rare saccharides were added at a concentration of 50 mM to culture media under the following conditions, and an influence of each rare saccharide upon the progress of proliferation of cancer cell strains was examined.
(1) Target cells to which the rare saccharides were added: Hepatic cancer cells (HepG2), uterine cancer cells (He1a), ovary cancer cells (OVCAR3), and skin keratinocyte (HaCaT) were selected as target cells to which the rare saccharides were added.
(2) Rare saccharides added: In addition to D-allose, glucose and D-altros as rare saccharides belonging to ketose were added, as other comparative saccharides, to the addition target cells. Also, D-fructose was employed as a control.
(3) Experiment method: A number 3,000-5,000 of addition target cells per type were inoculated into a multi-well plastic dish (hereinafter referred to as a “well”) having 96 wells, and were cultured for 4 to 5 days in a culture medium supplemented with 5 to 10% of Fetal Bovine Serum (FBS) depending on the cell types. […] To examine the influence upon the cell proliferation, the cell number was measured in units of 24 hours by using the MTT method described below. […]
(2) Test method: The cells were treated with TEP to prepare a cell suspension liquid. […] The absorbance of the liquid was measured at a wavelength of 570 to 600 nm by using a spectrophotometer. […]

KS-1 = assay: blood-system cancer cell strain proliferation, Coulter Counter, KS1; assay type: cell-based; details: 0.05-50 mM, 7 days, D-glucose control
Protocol: (2) Method: Total 6 kinds of cell strains, i.e., Myeloid (HL-60, THP-1, KG-1), T-cell (MT-2), and B-Cell (Daudi, KS-1), and 3 kinds of rare saccharides (i.e., D-psicose, D-altrose, and D-allose), were employed. The culture medium and the cells were prepared to be 1 mL in total and 1×10^5 in number, respectively. Then, the cell number at each of fourth day and seventh day was counted by using a Coulter Counter. Each rare saccharide was added at concentrations of 0.05, 0.5, 5 and 50 mM, while D-glucose was used as a control.
Culture Medium: FBS 10% added RPMI1460
Cultivation Conditions: 37° C., 5% CO2
Cultivation Vessel: FALCON, MULTIWELL, 12 wells
Number of Cultivation Days: 7 days
Saccharides Concentration: 0.05, 0.5, 5, 50 mM

[3] = test system: Human vascular endothelial cells (HUVECs); assay: MCP-1 secretion from vascular endothelial cells, ELISA; assay type: cell-based; details: D-psicose 0, 5.6, 11.2 mM, 24 hours
Protocol: Human vascular endothelial cells (HUVECs) were cultured under the culture medium condition of (DMEM +10% FBS) in accordance with the ordinary method. HUVECs at concentration of about 70% were pipitted into a 96-well culture dish, and the following experiments were performed.
D-psicose was added to the HUVECs culture medium at concentrations of 0 mM, 5.6 mM and 11.2 mM. After cultivation for 24 hours, MCP-1 in the culture medium was measured by using an ELISA (Quantikine, R&D) kit.
HUVECs were pretreated for 1 hour with cytokines acting upon HUVECs and stimulating secretion of MCP-1, i.e., IL-1β (maximum secretion stimulus concentration of 1 ng/mL), and TNF-α (maximum secretion stimulus concentration of 10 ng/mL). Then, D-psicose was added at concentrations of 0 mM, 5.6 mM and 11.2 mM, and after 24-hour cultivation, the MCP-1 concentration in the culture medium was measured by using the ELISA kit. […] The secretion of MCP-1 in the vascular endothelial cells is stimulated by cytokines (IL-1β, TNF-α) at maximum secretion stimulus concentration of 1 ng/mL for IL-1β and 10 ng/mL for TNF-α.

O=C[C@H](O)[C@H](O)[C@H](O)[C@H](O)CO [D-allose]
proportion of the cells in G2-M stage of the cell cycle [1]: 22.6% | proliferation of He1a cells (cell number over time) [2]: strongly inhibited proliferation; also recorded: has a proliferation inhibitory effect | KS1 proliferation inhibitory effect (KS-1): having the inhibitory effect | KS1 proliferation inhibitory effect (KS-1; listed as allose): showed a cell proliferation inhibitory effect at 59 mM

O=C(CO)[C@H](O)[C@H](O)[C@H](O)CO [D-psicose]
basic secretion of MCP-1 [3]: able to inhibit the secretion of MCP-1 depending on the concentration; also recorded: has a MCP-1 secretion inhibitory effect | cytokine-stimulated secretion of MCP-1 ([3]; IL-1β 1 ng/mL pretreatment 1 hour): inhibited by added D-psicose depending on the concentration; also recorded: inhibits secretion of MCP-1
